PMC2346451 (PLoS ONE, 2008)

Key:
rat TRPV1 (rTRPV1) = rat TRPV1 (rTRPV1) (Rattus norvegicus, UniProt O35433); experiment: Whole-cell patch clamp of rat TRPV1 expressed in HEK-293T cells; assay type: cell-based; conditions: for Decrease of pH 5-evoked TRPV1 current: 300 µM, −40 mV; for Activation of TRPV1 current: analyzed at −40 mV and +40 mV
Procedure: (§1) Transformed human embryonic kidney-293 (HEK-293T) cells were grown in Dulbecco's modified Eagle's medium (DMEM)+F-12 supplemented with 10% fetal calf serum, and 1% penicillin/streptomycin in 5% CO2 at 37°C. Cells grown to 90% confluence in 35 mm Petri dishes were transiently transfected with plasmid DNA encoding a TRP channel construct (1 µg). Rat TRPV1 (rTRPV1) was cloned into an enhanced green fluorescent protein-containing vector (pTracer-CMV2; Invitrogen, Carlsbad, CA). Chicken TRPV1 (cTRPV1), the chicken rat TRPV1 chimera (crcTRPV1), rat TRPV2 (rTRPV2), mouse TRPV3 (mTRPV3), mouse TRPV4 (mTRPV4), rat TRPM8 (rTRPM8), and rat TRPA1 (rTRPA1), were cloned into pcDNA3 and co-transfected with enhanced green fluorescent protein (0.1 µg) to follow expression. The cTRPV1 and crcTRPV1 clones were kindly provided by Dr. David Julius. Recordings were carried out 24–36 hours after transfection. Cells were split via trypsin EDTA, plated on glass coverslips at 5–10% confluence, and used 2–3 hours later.
(§2) Electrophysiological experiments were performed using the whole-cell patch-clamp technique at room temperature. Modified Ringer's solution with low chloride and nominal calcium contained (in mM): 130 sodium hydroxide, 5 potassium chloride, 1 magnesium chloride, 10 sodium 4-(2-hydroxyethyl)-1-piperazineethanesulfonic acid, 10 2-(N-morpholino)ethanesulfonic acid, and 20 glucose (pH 7.4; 310 milli-osmolar). […] 2 mM calcium chloride was included in the external solution where noted. To activate TRPV1, the modified Ringer's solution was made at pH 5 (low pH solution) and the chloride concentration was kept to a minimum to prevent contamination of the TRPV1 currents with acid-activated chloride currents. For recordings from heterologously expressing cells, the internal pipette solution contained (in mM): 125 cesium-Methanesulfonate, 10 cesium (1.2-bis(o-aminophenoxy)ethane-N,N,N',N'-tetraacetic acid, 8 sodium chloride, 4 magnesium adenosine triphosphate, and 10 HEPES (pH 7.2; 290 mOSM; nominal free calcium concentrations). For TRPA1 and dorsal root ganglion recordings, the internal pipette solution contained (in mM): 110 cesium-Methanesulfonate, 0.5 cesium4BAPTA, 8 sodium chloride, 0.2 calcium chloride, 4 magnesium-ATP, 4 sodium-GTP, and 10 4-(2-hydroxyethyl)-1-piperazineethanesulfonic acid (pH 7.2; 290 mOSM; 100 nM free calcium internal). MaxChelator was used to calculate the free calcium concentration (http://www.stanford.edu/cpatton/maxc.html).
(§3) Recordings were obtained using an Axopatch 200B amplifier, Digidata 1322A analog-to-digital converter, and pClamp 8.01 software (Molecular Devices, Union City, CA). Data were low-pass filtered at 2 kHz and digitized at 5 kHz. Borosilicate glass pipettes (World Precision Instruments, Sarasota, FL) were typically 3 MΩ pipette resistance after fire polishing. Cell capacitance was measured for each cell, and access resistance compensated to ∼80%. Recordings were begun ∼5 minutes after initial rupture to ensure initial steady state conditions. Current-voltage (I-V) relations were obtained using a ramp protocol. Voltage ramps (400 ms) from −100 to +40 or +100 mV were applied every 1–2 seconds and the holding potential was either −70 mV or 0 mV (see Figure Legends). A 40 ms step was added at the beginning and end of the ramp (i.e. at −100 mV, +40 mV or +100 mV). Liquid junction potentials were not corrected.
(§4) The dose response curves were fit with the Hill equation, where [drawing 8] and [A] is the concentration of agonist or blocker, N is the Hill coefficient, and KD is the [A] for Imeasured/Imax = 0.5. The term apparent dissociation constant is used in place of the half concentration of excitation and inhibition. […] Averaged data are presented as mean±standard error (S.E.) throughout. Statistical analysis included paired and unpaired Student's t-test comparisons of the data; p values are reported in the text.

rat TRPA1 (rTRPA1) = rat TRPA1 (rTRPA1) (Rattus norvegicus, UniProt Q6RI86); experiment: Whole-cell patch clamp of rat TRPA1 expressed in HEK-293T cells; assay type: cell-based
Chain of rat TRPA1 (rTRPA1) (Q6RI86 whole entry): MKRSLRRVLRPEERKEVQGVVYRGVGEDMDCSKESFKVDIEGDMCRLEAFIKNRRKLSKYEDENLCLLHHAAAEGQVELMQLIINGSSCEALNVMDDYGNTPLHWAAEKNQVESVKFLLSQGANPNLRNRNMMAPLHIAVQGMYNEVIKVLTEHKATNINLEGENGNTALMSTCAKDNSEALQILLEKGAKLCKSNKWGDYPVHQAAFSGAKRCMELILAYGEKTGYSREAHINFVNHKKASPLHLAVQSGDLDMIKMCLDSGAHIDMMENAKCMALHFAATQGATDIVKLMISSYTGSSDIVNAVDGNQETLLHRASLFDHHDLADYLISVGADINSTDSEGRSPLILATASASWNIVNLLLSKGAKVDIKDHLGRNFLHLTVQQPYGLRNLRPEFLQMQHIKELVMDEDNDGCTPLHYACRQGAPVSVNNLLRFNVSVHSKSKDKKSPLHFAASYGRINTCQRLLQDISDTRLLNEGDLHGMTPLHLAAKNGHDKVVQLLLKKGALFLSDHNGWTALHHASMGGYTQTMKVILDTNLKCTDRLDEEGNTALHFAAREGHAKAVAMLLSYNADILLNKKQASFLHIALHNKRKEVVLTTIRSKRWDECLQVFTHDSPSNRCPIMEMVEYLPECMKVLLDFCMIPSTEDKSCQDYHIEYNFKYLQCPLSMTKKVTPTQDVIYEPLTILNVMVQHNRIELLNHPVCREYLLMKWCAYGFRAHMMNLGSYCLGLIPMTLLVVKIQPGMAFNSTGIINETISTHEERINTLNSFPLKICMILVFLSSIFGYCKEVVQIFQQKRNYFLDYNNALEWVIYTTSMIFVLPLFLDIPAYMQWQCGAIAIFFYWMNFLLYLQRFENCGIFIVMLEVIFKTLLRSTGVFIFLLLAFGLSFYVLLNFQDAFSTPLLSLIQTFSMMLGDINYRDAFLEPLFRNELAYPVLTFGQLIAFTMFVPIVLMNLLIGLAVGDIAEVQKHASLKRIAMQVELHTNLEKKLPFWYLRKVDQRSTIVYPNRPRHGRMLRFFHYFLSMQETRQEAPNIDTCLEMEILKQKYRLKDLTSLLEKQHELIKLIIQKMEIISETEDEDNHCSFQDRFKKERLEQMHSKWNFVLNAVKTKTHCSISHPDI
Procedure: as §1, §2, §3, §4

rat TRPM8 (rTRPM8) = rat TRPM8 (rTRPM8) (Rattus norvegicus, UniProt Q8R455); experiment: Whole-cell patch clamp of rat TRPM8 expressed in HEK-293T cells; assay type: cell-based
Chain of rat TRPM8 (rTRPM8) (Q8R455 whole entry): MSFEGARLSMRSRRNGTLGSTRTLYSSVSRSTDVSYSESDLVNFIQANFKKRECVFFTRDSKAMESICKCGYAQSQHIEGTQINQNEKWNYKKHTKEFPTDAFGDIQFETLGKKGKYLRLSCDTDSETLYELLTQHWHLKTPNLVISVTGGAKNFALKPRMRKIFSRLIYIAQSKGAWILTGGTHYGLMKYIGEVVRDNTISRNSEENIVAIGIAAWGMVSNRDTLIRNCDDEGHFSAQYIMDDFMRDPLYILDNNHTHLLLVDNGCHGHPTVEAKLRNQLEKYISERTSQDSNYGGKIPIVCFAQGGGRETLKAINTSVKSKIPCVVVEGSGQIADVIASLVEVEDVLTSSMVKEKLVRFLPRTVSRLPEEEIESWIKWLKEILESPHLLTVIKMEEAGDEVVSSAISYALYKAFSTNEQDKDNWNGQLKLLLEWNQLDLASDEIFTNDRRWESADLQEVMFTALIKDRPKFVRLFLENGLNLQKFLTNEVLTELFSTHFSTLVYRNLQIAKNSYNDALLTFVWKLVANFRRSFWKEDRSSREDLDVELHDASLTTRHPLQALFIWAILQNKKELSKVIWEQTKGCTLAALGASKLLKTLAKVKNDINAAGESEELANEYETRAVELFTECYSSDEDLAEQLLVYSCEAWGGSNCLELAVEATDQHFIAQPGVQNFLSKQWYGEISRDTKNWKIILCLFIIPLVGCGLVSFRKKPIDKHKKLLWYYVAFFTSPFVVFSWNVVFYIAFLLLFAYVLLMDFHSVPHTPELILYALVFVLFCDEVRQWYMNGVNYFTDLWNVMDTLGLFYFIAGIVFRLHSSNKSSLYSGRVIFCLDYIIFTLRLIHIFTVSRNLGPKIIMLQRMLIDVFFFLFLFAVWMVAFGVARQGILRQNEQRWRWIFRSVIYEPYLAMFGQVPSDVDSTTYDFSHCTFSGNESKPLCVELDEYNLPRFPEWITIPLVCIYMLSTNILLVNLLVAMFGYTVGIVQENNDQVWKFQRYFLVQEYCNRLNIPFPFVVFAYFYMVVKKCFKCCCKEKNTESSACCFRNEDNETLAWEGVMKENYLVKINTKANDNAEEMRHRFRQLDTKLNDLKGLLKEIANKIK
Procedure: as §1, §2, §3, §4

mouse TRPV3 (mTRPV3) = target: T1, mouse TRPV3 (mTRPV3) (Mus musculus, UniProt Q8K424); experiment: Whole-cell patch clamp of mouse TRPV3 expressed in HEK-293T cells; assay type: cell-based
T1 sequence (Q8K424 1-791): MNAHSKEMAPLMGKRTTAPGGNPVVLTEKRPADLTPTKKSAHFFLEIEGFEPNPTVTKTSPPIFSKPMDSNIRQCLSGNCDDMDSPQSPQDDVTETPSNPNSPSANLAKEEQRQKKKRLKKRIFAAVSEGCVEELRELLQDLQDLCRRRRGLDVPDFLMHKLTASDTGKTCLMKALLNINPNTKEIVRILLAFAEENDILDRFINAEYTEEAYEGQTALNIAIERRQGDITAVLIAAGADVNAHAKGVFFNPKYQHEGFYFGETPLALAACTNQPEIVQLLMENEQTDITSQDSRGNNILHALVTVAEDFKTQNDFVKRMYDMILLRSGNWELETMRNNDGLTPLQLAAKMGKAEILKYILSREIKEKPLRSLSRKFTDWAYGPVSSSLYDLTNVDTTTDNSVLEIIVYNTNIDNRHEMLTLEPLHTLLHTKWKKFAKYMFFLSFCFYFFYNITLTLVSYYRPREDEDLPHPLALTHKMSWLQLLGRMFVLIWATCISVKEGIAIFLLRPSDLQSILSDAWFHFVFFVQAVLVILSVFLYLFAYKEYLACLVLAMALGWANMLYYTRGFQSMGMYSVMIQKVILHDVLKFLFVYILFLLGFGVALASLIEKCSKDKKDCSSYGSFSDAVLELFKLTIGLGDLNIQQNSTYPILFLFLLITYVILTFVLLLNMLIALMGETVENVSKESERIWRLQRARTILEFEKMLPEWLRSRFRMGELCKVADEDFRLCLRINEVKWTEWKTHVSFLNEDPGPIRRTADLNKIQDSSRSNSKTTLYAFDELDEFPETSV
Procedure: as §1, §2, §3, §4

[1] = test system: dorsal root ganglion neurons; experiment: Whole-cell patch clamp of acutely isolated dorsal root ganglion neurons; assay type: cell-based, rat
Text: Dorsal root ganglion neurons from all spinal levels were removed from postnatal day 12 to 20 Sprague Dawley rats and the nerve roots trimmed. Calcium- and magnesium-free (CMF) Hank's solution contained (in mM): 136.9 sodium chloride, 5.4 potassium chloride, 0.34 dibasic sodium orthophosphate, 0.44 monopotassium phosphate, 5.6 glucose, 5 4-(2-hydroxyethyl)-1-piperazineethanesulfonic acid, 0.005% phenol red, pH 7.4. CMF Hank's was used throughout the isolation and enzymatic treatments. The isolated ganglia were treated for 20 minutes at 37°C with 20 U/ml of papain (Worthington Biochemical, Lakewood, NJ) and 5 mM cysteine. The ganglia were then transferred to CMF Hank's with 3 mg/ml collagenase (type I; Worthington) and 4 mg/ml dispase (neutral type II; Roche Applied Science, Indianapolis, IN) for 20 minutes at 37°C. Individual neurons were dispersed by trituration through a fire-polished glass Pasteur pipette in 3 ml of media containing DMEM, 5% horse serum, 10% fetal bovine serum, 1% penicillin/streptomycin, and 100 ng/ml Nerve Growth Factor (7S subunit; Invitrogen). The neurons were preplated in tissue culture-treated Petri dishes for 1 hour when used for electrophysiology (3 hours for calcium imaging), and then plated on poly-L-lysine (1 mg/ml)-coated glass coverslips. Dorsal root ganglion neurons were allowed to settle for 1–2 hours at 37°C before patching or imaging over the next 6 hours.
as §2, §3

[2] = after citral inhibition of TRPV1

Chain of rat TRPV1 (rTRPV1) (O35433 whole entry): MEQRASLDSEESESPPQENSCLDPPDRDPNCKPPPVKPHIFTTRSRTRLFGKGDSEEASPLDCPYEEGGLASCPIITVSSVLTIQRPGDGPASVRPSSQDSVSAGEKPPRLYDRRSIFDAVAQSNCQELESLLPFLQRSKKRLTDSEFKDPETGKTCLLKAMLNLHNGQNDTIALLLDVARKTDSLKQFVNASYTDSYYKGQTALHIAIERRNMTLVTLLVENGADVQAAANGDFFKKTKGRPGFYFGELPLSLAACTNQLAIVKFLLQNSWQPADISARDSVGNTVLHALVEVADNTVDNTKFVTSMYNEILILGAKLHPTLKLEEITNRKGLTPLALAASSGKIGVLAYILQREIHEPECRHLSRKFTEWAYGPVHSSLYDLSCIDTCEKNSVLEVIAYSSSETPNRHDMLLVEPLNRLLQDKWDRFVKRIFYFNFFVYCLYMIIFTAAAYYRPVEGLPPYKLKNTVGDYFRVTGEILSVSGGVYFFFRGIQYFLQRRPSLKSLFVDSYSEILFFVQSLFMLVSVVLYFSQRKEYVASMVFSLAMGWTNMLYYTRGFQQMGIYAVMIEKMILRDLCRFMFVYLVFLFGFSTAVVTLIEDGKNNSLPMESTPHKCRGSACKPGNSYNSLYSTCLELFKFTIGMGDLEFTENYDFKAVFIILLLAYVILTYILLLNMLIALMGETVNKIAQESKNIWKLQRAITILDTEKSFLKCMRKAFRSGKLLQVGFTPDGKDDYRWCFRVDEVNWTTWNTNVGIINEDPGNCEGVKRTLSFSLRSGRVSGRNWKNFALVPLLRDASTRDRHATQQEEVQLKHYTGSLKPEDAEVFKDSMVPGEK

Decrease of pH 5-evoked TRPV1 current (rat TRPV1 (rTRPV1)) [%] | SMILES | Activation of TRPV1 current (rat TRPV1 (rTRPV1)) | Activation of TRPA1 current (rat TRPA1 (rTRPA1)) | Activation of TRPM8 current (rat TRPM8 (rTRPM8)) | Activation of TRPV3 current (mouse TRPV3 (mTRPV3)) | further results
50 | CC(C)=CCC/C(C)=C\CO [nerol] | weakly activated | weakly activated | weakly activated | weakly activated | TRPV1 current recovered after washout (rat TRPV1 (rTRPV1); 1 mM, 5 minutes after washout, in 3 of 4 cells): < 1%; inhibition at 1000 µM (rat TRPV1 (rTRPV1); HEK-293T, pH 5, 1 mM, sustained after 5 minutes washout, read-out: Inhibition of pH 5-evoked TRPV1 current): 100%; Increase of TRPA1 current on second application (rat TRPA1 (rTRPA1); 1 mM, −100 mV, n = 4): 2 fold
– | NCCOB(c1ccccc1)c1ccccc1 [2-aminoethyldiphenyl borate, reference compound] | – | – | – | – | Potentiation of current by repeated application, representative neuron ([1]; +100 mV): 2.3 fold; Cells with evoked currents among cells in which TRPV1 was inhibited [1, 2]: 27 of 30; Increase of current in cells in which TRPV1 was inhibited [1, 2]: 3±0.4 fold; Potentiation of current by repetitive application ([1]; second responsive population (six of twelve neurons)): 1.7±0.3 fold
– | CC(C)=CCC/C(C)=C\C=O [neral] | weakly activated | weakly activated | weakly activated | weakly activated | –
45 | CC(C)=CCC/C(C)=C/CO [geraniol] | weakly activated | weakly activated | weakly activated | weakly activated | Block of inward TRPA1 current (rat TRPA1 (rTRPA1); 1 mM, −100 mV, n = 9): 70%
– | CC12CCC(CC1=O)C2(C)C (stereo not drawn) [camphor, reference compound] | – | – | – | – | Increase in outward current ([1]; second 2-aminoethyldiphenyl borate responsive population): 1.3 fold
– | CC(C)=CCC/C(C)=C/C=O [geranial] | weakly activated | weakly activated | weakly activated | weakly activated | –
